Measurements published in patent US8541588B2, “Sulfonamide derivatives” (Pfizer Limited, priority 2009, dated 2013).

Molecular target: T1, Nav1.7 (or SCN9A) channel; HEK cells stably transfected with hSCN9A (Homo sapiens, UniProt Q15858)
T1 construct: expressed in transfected cells
Experiment: Nav1.7 block, PatchXpress 7000 automated whole-cell voltage clamp, estimated IC50 (EIC50)
Format: cell-based
Conditions: PatchXpress platform; hSCN9A HEK cells held at V1/2 of inactivation; estimated IC50

T1 sequence (Q15858 whole entry): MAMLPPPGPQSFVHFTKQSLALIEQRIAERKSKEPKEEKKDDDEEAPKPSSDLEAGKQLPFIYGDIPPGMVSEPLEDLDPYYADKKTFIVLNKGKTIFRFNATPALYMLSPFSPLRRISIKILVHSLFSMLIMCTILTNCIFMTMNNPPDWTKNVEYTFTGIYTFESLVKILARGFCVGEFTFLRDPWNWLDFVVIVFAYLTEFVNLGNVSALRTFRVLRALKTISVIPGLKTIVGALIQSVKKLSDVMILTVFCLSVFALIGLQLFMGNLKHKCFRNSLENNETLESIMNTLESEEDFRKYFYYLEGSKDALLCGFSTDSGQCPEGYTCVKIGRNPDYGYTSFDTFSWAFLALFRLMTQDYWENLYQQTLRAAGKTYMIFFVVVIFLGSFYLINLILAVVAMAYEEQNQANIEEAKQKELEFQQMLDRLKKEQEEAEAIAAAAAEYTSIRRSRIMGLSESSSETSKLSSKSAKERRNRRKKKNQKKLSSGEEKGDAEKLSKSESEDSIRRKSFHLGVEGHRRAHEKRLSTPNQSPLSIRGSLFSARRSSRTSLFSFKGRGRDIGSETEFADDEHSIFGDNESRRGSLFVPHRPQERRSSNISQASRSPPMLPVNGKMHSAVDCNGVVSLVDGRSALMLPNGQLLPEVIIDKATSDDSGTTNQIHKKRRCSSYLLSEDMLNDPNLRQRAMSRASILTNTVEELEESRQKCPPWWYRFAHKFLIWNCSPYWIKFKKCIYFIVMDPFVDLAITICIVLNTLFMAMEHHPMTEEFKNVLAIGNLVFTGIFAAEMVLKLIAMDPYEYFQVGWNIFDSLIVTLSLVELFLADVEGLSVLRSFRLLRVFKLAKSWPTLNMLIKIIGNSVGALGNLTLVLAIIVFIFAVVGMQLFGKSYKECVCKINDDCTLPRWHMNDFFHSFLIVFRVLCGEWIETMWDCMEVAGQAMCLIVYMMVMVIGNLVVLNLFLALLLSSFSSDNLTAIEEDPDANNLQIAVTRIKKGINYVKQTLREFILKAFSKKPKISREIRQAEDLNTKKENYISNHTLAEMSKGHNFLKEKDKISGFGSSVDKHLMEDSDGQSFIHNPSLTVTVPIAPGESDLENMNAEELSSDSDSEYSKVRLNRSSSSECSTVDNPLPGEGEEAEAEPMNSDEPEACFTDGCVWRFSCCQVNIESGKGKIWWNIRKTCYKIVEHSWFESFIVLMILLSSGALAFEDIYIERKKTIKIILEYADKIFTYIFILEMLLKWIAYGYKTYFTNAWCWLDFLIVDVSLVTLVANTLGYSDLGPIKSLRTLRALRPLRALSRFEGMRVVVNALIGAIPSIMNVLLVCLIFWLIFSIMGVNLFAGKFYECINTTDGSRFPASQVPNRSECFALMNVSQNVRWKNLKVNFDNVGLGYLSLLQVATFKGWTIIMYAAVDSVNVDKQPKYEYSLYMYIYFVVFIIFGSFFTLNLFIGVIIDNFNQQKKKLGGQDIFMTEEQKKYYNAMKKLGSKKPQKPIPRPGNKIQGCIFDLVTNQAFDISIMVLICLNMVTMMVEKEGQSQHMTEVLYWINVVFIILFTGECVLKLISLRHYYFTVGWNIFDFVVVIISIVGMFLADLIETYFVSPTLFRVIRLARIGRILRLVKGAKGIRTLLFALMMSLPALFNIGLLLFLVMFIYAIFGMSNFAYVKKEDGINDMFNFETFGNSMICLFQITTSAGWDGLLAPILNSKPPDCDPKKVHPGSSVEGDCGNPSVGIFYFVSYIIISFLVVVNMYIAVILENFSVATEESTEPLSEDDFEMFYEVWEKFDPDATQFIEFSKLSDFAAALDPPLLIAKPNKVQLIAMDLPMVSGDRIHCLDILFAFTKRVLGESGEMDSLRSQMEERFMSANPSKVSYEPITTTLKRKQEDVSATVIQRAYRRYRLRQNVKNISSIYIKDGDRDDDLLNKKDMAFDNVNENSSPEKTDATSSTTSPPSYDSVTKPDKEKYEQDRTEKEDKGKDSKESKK

Structure (SMILES) | IC50
Cc1nccn1-c1cc(Cl)ccc1Oc1ccc(S(=O)(=O)Nc2nccs2)cc1C#N [Example 159, 4-[4-chloro-2-(2-methyl-1H-imidazol-1-yl)phenoxy]-3-cyano-N-1,3-thiazol-2-ylbenzenesulfonamide] | 80 nM
COCc1cccc(-c2cc(F)ccc2Oc2ccc(S(=O)(=O)Nc3nccs3)cc2C#N)c1 [Example 160, 3-cyano-4-{[5-fluoro-3′-(methoxymethyl)biphenyl-2-yl]oxy}-N-1,3-thiazol-2-ylbenzenesulfonamide] | 60 nM
N#Cc1cc(S(=O)(=O)Nc2nccs2)ccc1Oc1ccc(Cl)cc1-c1ccccn1 [Example 164, 4-(4-chloro-2-pyridin-2-ylphenoxy)-3-cyano-N-1,3-thiazol-2-ylbenzenesulfonamide] | 580 nM
Cn1nccc1-c1cc(F)ccc1Oc1ccc(S(=O)(=O)Nc2nccs2)cc1C#N [Example 169, 3-cyano-4-(4-fluoro-2-(1-methyl-1H-pyrazol-5-yl)phenoxy)-N-(thiazol-2-yl)benzenesulfonamide] | 50 nM
Cn1nccc1-c1cc(Cl)ccc1Oc1ccc(S(=O)(=O)Nc2nccs2)cc1C#N [Example 170, 4-[4-Chloro-2-(1-methyl-1H-pyrazol-5-yl)phenoxy]-3-cyano-N-1,3-thiazol-2-ylbenzenesulfonamide] | 10 nM
N#Cc1cc(S(=O)(=O)Nc2nccs2)ccc1Oc1ccc(F)cc1-c1ccnn1CC(F)(F)F [Example 175, 3-cyano-4-(4-fluoro-2-(1-(2,2,2-trifluoroethyl)-1H-pyrazol-5-yl)phenoxy)-N-(thiazol-2-yl)benzenesulfonamide] | 540 nM
Cc1ccnn1-c1cc(F)ccc1Oc1ccc(S(=O)(=O)Nc2nccs2)cc1C#N [Example 176, 3-cyano-4-(4-fluoro-2-(5-methyl-1H-pyrazol-1-yl)phenoxy)-N-(thiazol-2-yl)benzenesulfonamide] | 8870 nM
N#Cc1cc(S(=O)(=O)Nc2nccs2)ccc1Oc1ccc(Cl)cc1-c1ccnn1CC(F)(F)F [Example 177, 4-(4-chloro-2-(1-(2,2,2-trifluoroethyl)-1H-pyrazol-5-yl)phenoxy)-3-cyano-N-(thiazol-2-yl)benzenesulfonamide] | 100 nM
Cn1ccc(-c2ccc(Oc3ccc(S(=O)(=O)Nc4nccs4)cc3C#N)c(Cl)c2)n1 [Example 178, 4-(2-chloro-4-(1-methyl-1H-pyrazol-3-yl)phenoxy)-3-cyano-N-(thiazol-2-yl)benzenesulfonamide] | 3080 nM
Cn1nccc1-c1ccc(Oc2ccc(S(=O)(=O)Nc3nccs3)cc2C#N)c(Cl)c1 [Example 179, 4-(2-chloro-4-(1-methyl-1H-pyrazol-5-yl)phenoxy)-3-cyano-N-(thiazol-2-yl)benzenesulfonamide] | 2190 nM
Cn1cnnc1-c1cc(Cl)ccc1Oc1ccc(S(=O)(=O)Nc2nccs2)cc1C#N [Example 182, 4-(4-chloro-2-(4-methyl-4H-1,2,4-triazol-3-yl)phenoxy)-3-cyano-N-(thiazol-2-yl)benzenesulfonamide] | 930 nM
CC(C)(C)n1ccc(-c2ccc(Oc3ccc(S(=O)(=O)Nc4nccs4)cc3C#N)c(F)c2)n1 [Example 184, 4-[4-(1-tert-butyl-1H-pyrazol-3-yl)-2-fluoro-phenoxy]-3-cyano-N-thiazol-2-yl-benzenesulfonamide] | 9170 nM
N#Cc1cc(S(=O)(=O)Nc2nccs2)ccc1Oc1cc(-c2ccccc2F)nn1CC(F)(F)F [Example 188, 3-cyano-4-[5-(2-fluoro-phenyl)-2-(2,2,2-trifluoro-ethyl)-2H-pyrazol-3-yloxy]-N-thiazol-2-yl-benzenesulfonamide] | 9420 nM

The next lines start with the values.

IC50 | Structure (SMILES)
70 nM | N#Cc1cc(S(=O)(=O)Nc2nccs2)ccc1Oc1ccc(F)cc1-c1cccc(CO)c1 [Example 161, 3-cyano-4-{[5-fluoro-3′-(hydroxymethyl)biphenyl-2-yl]oxy}-N-1,3-thiazol-2-ylbenzenesulfonamide]
420 nM | N#Cc1cc(S(=O)(=O)Nc2nccs2)ccc1Oc1ccc(F)cc1-c1ccc(CO)cc1 [Example 162, 3-cyano-4-{[5-fluoro-4′-(hydroxymethyl)biphenyl-2-yl]oxy}-N-1,3-thiazol-2-ylbenzenesulfonamide]
410 nM | COCc1ccc(-c2cc(F)ccc2Oc2ccc(S(=O)(=O)Nc3nccs3)cc2C#N)cc1 [Example 163, 3-cyano-4-{[5-fluoro-4′-(methoxymethyl)biphenyl-2-yl]oxy}-N-1,3-thiazol-2-ylbenzenesulfonamide]
50 nM | N#Cc1cc(S(=O)(=O)Nc2nccs2)ccc1Oc1ccccc1-c1ccccc1 [Example 165, 4-(biphenyl-2-yloxy)-3-cyano-N-(thiazol-2-yl)benzenesulfonamide]
1810 nM | Cc1nc(-c2ccccc2Oc2ccc(S(=O)(=O)Nc3nccs3)cc2C#N)cs1 [Example 166, 3-cyano-4-(2-(2-methylthiazol-4-yl)phenoxy)-N-(thiazol-2-yl)benzenesulfonamide]
750 nM | N#Cc1cc(S(=O)(=O)Nc2nccs2)ccc1Oc1cnn(Cc2ccc(Cl)cc2)c1 [Example 167, 4-(1-(4-chlorobenzyl)-1H-pyrazol-4-yloxy)-3-cyano-N-(thiazol-2-yl)benzenesulfonamide]
70 nM | N#Cc1cc(S(=O)(=O)Nc2nccs2)ccc1Oc1cc(C(F)(F)F)nn1-c1ccccc1 [Example 168, 3-cyano-4-(1-phenyl-3-(trifluoromethyl)-1H-pyrazol-5-yloxy)-N-(thiazol-2-yl)benzenesulfonamide]
110 nM | N#Cc1cc(S(=O)(=O)Nc2nccs2)ccc1Oc1ccc(Cl)cc1-c1ccnn1-c1ccccc1 [Example 171, 4-(4-chloro-2-(1-phenyl-1H-pyrazol-5-yl)phenoxy)-3-cyano-N-(thiazol-2-yl)benzenesulfonamide]
2090 nM | N#Cc1cc(S(=O)(=O)Nc2nccs2)ccc1Oc1ccccc1-c1nnco1 [Example 173, 4-(2-(1,3,4-oxadiazol-2-yl)phenoxy)-3-cyano-N-(thiazol-2-yl)benzenesulfonamide]
>10000 nM | N#Cc1cc(S(=O)(=O)Nc2nccs2)ccc1Oc1ccccc1-c1ccno1 [Example 174, 3-cyano-4-(2-(isoxazol-5-yl)phenoxy)-N-(thiazol-2-yl)benzenesulfonamide]
>10000 nM | N#Cc1cc(S(=O)(=O)Nc2nccs2)ccc1Oc1ccccc1-c1nncn1-c1ccccc1 [Example 181, 3-cyano-4-(2-(4-phenyl-4H-1,2,4-triazol-3-yl)phenoxy)-N-(thiazol-2-yl)benzenesulfonamide]
990 nM | N#Cc1cc(S(=O)(=O)Nc2nccs2)ccc1Oc1ccc(-n2ccc(C(F)(F)F)n2)cc1 [Example 183, 3-cyano-N-thiazol-2-yl-4-[4-(3-trifluoromethyl-pyrazol-1-yl)-phenoxy]-benzenesulfonamide]
33000 nM | N#Cc1cc(S(=O)(=O)Nc2nccs2)ccc1Oc1ccc(-c2cc[nH]n2)cc1F [Example 185, 3-cyano-4-[2-fluoro-4-(1H-pyrazol-3-yl)-phenoxy]-N-thiazol-2-yl-benzenesulfonamide]
1050 nM | Cc1cc(C)n(-c2ccc(Oc3ccc(S(=O)(=O)Nc4nccs4)cc3C#N)cc2)n1 [Example 186, 3-cyano-4-[4-(3,5-dimethyl-pyrazol-1-yl)-phenoxy]-N-thiazol-2-yl-benzenesulfonamide]
1670 nM | N#Cc1cc(S(=O)(=O)Nc2nccs2)ccc1Oc1ccc(-c2ccccc2)cc1 [Example 187, 4-(biphenyl-4-yloxy)-3-cyano-N-thiazol-2-yl-benzenesulfonamide]
